The subject of assay [1] is p21 induction in HCT116 cells. Kind of assay: p21 induction in HCT116 cells. As to conditions: Homo sapiens, HCT-116, 24 h, HCT116 cells, 24 h compound incubation; read-out: P21_EC50. In kind it is cell-based. The method in brief: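 EC50 from non-linear curve fit of p21 immunofluorescence (800 nm), with GAPDH (700 nm) read alongside. DMSO and a reference WRN inhibitor served as low and high controls. Cells (2,000/well) got 11 compound concentrations in duplicate for 24 h at 37 °C.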

For assay [2], the target named is WRN (BV08), human Werner helicase (Uniprot Q14191, amino acids 517-1235 with L1074F point mutation) (Homo sapiens (Human), UniProt Q14191, L1074F). Briefly: WRN (BV08) ADP-Glo assay. It counts as biochemical. The settings on record: class symbols A-E, read-out: ADP-Glo_hWRN_IC50. For orientation: ADP-Glo turns the ADP formed in a reaction into a luminescent signal.

Where only a bound is given, the exact number is not on record here.

Sequence of WRN (BV08), human Werner helicase (Uniprot Q14191, amino acids 517-1235 with L1074F point mutation) (Q14191 other isoform, or with tags, fused parts or gaps L1074F (already in the parent)): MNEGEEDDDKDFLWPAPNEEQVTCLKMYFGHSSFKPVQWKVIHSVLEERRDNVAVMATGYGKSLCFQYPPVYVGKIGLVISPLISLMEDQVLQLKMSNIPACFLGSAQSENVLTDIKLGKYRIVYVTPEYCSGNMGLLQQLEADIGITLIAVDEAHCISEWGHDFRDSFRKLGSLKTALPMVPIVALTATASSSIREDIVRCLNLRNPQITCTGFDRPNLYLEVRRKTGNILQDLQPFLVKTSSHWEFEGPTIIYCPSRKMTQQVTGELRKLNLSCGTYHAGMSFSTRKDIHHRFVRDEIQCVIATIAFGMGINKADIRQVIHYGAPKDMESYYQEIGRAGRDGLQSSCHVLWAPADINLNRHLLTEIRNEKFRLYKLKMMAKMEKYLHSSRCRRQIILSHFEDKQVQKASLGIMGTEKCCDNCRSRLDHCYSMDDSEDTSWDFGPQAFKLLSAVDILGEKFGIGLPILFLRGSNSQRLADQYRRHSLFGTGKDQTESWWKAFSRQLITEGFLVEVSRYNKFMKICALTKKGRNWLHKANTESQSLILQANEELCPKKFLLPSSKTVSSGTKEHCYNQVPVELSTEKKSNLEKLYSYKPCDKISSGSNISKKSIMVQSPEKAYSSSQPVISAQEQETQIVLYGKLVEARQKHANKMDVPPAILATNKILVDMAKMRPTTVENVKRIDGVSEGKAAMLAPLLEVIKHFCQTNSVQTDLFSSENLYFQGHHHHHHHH

Take `CCc1c(N2CCN(C(=O)c3ncnc(C)c3O)[C@H]3CC[C@@H]32)c(=O)c2nc(N3CCCC3=O)cnc2n1CC(=O)Nc1ccc(C(F)(F)F)cc1Cl` [I-253, N-[2-chloro-4-(trifluoromethyl)phenyl]-2-{6-ethyl-7-[(1S,6S)-5-(5-hydroxy-6-methylpyrimidine-4-carbonyl)-2,5-diazabicyclo[4.2.0]octan-2-yl]-8-oxo-2-(2-oxopyrrolidin-1-yl)-5H,8H-pyrido[2,3-b]pyrazin-5-yl}acetamide]: in assay [1], the EC50 was less than 500 nM. For the same compound, in assay [2], the IC50 lay within 5 to 50 nM.

For the compound `CCc1c(N2CCN(C(=O)c3ncnc(C)c3O)CC2)c(=O)c2nc(C3(C#N)CC3)cnc2n1CC(=O)Nc1ccc(C(F)(F)F)cc1Cl` [I-254, N-[2-chloro-4-(trifluoromethyl)phenyl]-2-[2-(1-cyanocyclopropyl)-6-ethyl-7-[4-(5-hydroxy-6-methylpyrimidine-4-carbonyl)piperazin-1-yl]-8-oxo-5H,8H-pyrido[2,3-b]pyrazin-5-yl]acetamide], the EC50 in assay [1] fell in the range of 500 to 2000 nM. Also, the IC50 in assay [2] lay within 5 to 50 nM.

On to `CCc1c(N2CCN(C(=O)c3ncnc(C)c3O)[C@H]3CC[C@@H]32)c(=O)c2nc(N(C)CCOC)cnc2n1CC(=O)Nc1ccc(C(F)(F)F)cc1Cl` [I-255, N-[2-chloro-4-(trifluoromethyl)phenyl]-2-{6-ethyl-7-[(1S,6S)-5-(5-hydroxy-6-methylpyrimidine-4-carbonyl)-2,5-diazabicyclo[4.2.0]octan-2-yl]-2-[(2-methoxyethyl)(methyl)amino]-8-oxo-5H,8H-pyrido[2,3-b]pyrazin-5-yl}acetamide], for which, in assay [1], the EC50 is less than 500 nM. Further, the IC50 in assay [2] was in the range of 5 to 50 nM.

Consider `CCc1c(N2CC3CC2CN3C(=O)c2ncnc(C)c2O)c(=O)c2nc(N(C)C)cnc2n1CC(=O)Nc1ccc(C(F)(F)F)cc1Cl` (stereo not shown) [I-258, N-[2-chloro-4-(trifluoromethyl)phenyl]-2-[2-(dimethylamino)-6-ethyl-7-[5-(5-hydroxy-6-methylpyrimidine-4-carbonyl)-2,5-diazabicyclo[2.2.1]heptan-2-yl]-8-oxo-5H,8H-pyrido[2,3-b]pyrazin-5-yl]acetamide], for which the EC50 in assay [1] was more than 5000 nM. Moreover, in assay [2], the IC50 lay in the range of 100 to 500 nM.

`CCc1c(N2CCN(C(=O)c3cc(C)cnc3OC)[C@H]3CC[C@@H]32)c(=O)c2nc(N(C)C)cnc2n1CC(=O)Nc1ccc(C(F)(F)F)cc1Cl` [I-259, N-[2-chloro-4-(trifluoromethyl)phenyl]-2-[2-(dimethylamino)-6-ethyl-7-[(1S,6S)-5-(2-methoxy-5-methylpyridine-3-carbonyl)-2,5-diazabicyclo[4.2.0]octan-2-yl]-8-oxo-5H,8H-pyrido[2,3-b]pyrazin-5-yl]acetamide]: the EC50 in assay [1] fell in the range of 500 to 2000 nM. Besides, the IC50 in assay [2] lay in the range of 5 to 50 nM.

Consider `CCc1c(N2CCN(C(=O)c3c(OC)ncc(C)c3O)[C@H]3CC[C@@H]32)c(=O)c2nc(N(C)C)cnc2n1CC(=O)Nc1ccc(C(F)(F)F)cc1Cl` [I-261, N-[2-chloro-4-(trifluoromethyl)phenyl]-2-[2-(dimethylamino)-6-ethyl-7-[(1S,6S)-5-(4-hydroxy-2-methoxy-5-methylpyridine-3-carbonyl)-2,5-diazabicyclo[4.2.0]octan-2-yl]-8-oxo-5H,8H-pyrido[2,3-b]pyrazin-5-yl]acetamide], for which the EC50 in assay [1] is less than 500 nM. In addition, in assay [2], the IC50 is 5 to 50 nM.

`CCc1c(N2CCN(C(=O)c3ncnc(C)c3O)[C@H]3CC[C@@H]32)c(=O)c2nc(C)cnc2n1CC(=O)Nc1ccc(C(F)(F)F)cc1Cl` [I-262, N-[2-chloro-4-(trifluoromethyl)phenyl]-2-{6-ethyl-7-[(1S,6S)-5-(5-hydroxy-6-methylpyrimidine-4-carbonyl)-2,5-diazabicyclo[4.2.0]octan-2-yl]-2-methyl-8-oxo-5H,8H-pyrido[2,3-b]pyrazin-5-yl}acetamide]: the EC50 in assay [1] was less than 500 nM. The IC50 in assay [2] was in the range of 5 to 50 nM.

On to `CCc1c(N2CCN(C(=O)c3ncnc(C)c3O)[C@H]3CC[C@@H]32)c(=O)c2nc(N3CCNCC3)cnc2n1CC(=O)Nc1ccc(C(F)(F)F)cc1Cl` [I-263, N-[2-chloro-4-(trifluoromethyl)phenyl]-2-{6-ethyl-7-[(1S,6S)-5-(5-hydroxy-6-methylpyrimidine-4-carbonyl)-2,5-diazabicyclo[4.2.0]octan-2-yl]-8-oxo-2-(piperazin-1-yl)-5H,8H-pyrido[2,3-b]pyrazin-5-yl}acetamide], for which the EC50 in assay [1] was more than 5000 nM. Also, the IC50 in assay [2] lay in the range of 5 to 50 nM.

Consider `CCc1c(N2CCN(C(=O)c3ncnc(C)c3O)[C@H]3CC[C@@H]32)c(=O)c2nc(N(C)CCO)cnc2n1CC(=O)Nc1ccc(C(F)(F)F)cc1Cl` [I-264, N-[2-chloro-4-(trifluoromethyl)phenyl]-2-{6-ethyl-7-[(1S,6S)-5-(5-hydroxy-6-methylpyrimidine-4-carbonyl)-2,5-diazabicyclo[4.2.0]octan-2-yl]-2-[(2-hydroxyethyl)(methyl)amino]-8-oxo-5H,8H-pyrido[2,3-b]pyrazin-5-yl}acetamide], for which the EC50 in assay [1] is less than 500 nM. Moreover, in assay [2], the IC50 was in the range of 5 to 50 nM.

For `CCc1c(N2CCN(C(=O)c3cccc4ncoc34)[C@H]3CC[C@@H]32)c(=O)c2nc(N(C)C)cnc2n1CC(=O)Nc1ccc(C(F)(F)F)cc1Cl` [I-265, 2-{7-[(1S,6S)-5-(1,3-benzoxazole-7-carbonyl)-2,5-diazabicyclo[4.2.0]octan-2-yl]-2-(dimethylamino)-6-ethyl-8-oxo-5H,8H-pyrido[2,3-b]pyrazin-5-yl}-N-[2-chloro-4-(trifluoromethyl)phenyl]acetamide], the EC50 in assay [1] fell in the range of 2000 to 5000 nM. In addition, the IC50 in assay [2] lay within 5 to 50 nM.

Take `CCc1c(N2CCN(C(=O)c3ncnc(C)c3O)[C@H]3CC[C@@H]32)c(=O)c2nc(N[C@H](C)[C@H](C)O)cnc2n1CC(=O)Nc1ccc(C(F)(F)F)cc1Cl` [I-266, N-[2-chloro-4-(trifluoromethyl)phenyl]-2-{6-ethyl-7-[(1S,6S)-5-(5-hydroxy-6-methylpyrimidine-4-carbonyl)-2,5-diazabicyclo[4.2.0]octan-2-yl]-2-{[(2R,3S)-3-hydroxybutan-2-yl]amino}-8-oxo-5H,8H-pyrido[2,3-b]pyrazin-5-yl}acetamide]: the EC50 in assay [1] fell in the range of 500 to 2000 nM. In addition, the IC50 in assay [2] lay in the range of 5 to 50 nM.

Turning to `CCc1c(N2CCN(C(=O)c3ncnc(C)c3O)[C@H]3CC[C@@H]32)c(=O)c2nc(N(C)[C@H]3C[C@H](OC)C3)cnc2n1CC(=O)Nc1ccc(C(F)(F)F)cc1Cl` [I-267, N-[2-chloro-4-(trifluoromethyl)phenyl]-2-{6-ethyl-7-[(1S,6S)-5-(5-hydroxy-6-methylpyrimidine-4-carbonyl)-2,5-diazabicyclo[4.2.0]octan-2-yl]-2-{methyl[(1r,3r)-3-methoxycyclobutyl]amino}-8-oxo-5H,8H-pyrido[2,3-b]pyrazin-5-yl}acetamide], the EC50 in assay [1] was less than 500 nM. In addition, in assay [2], the IC50 is 5 to 50 nM.

Regarding `CCc1c(N2CCN(C(=O)c3ncnc(C)c3O)[C@H]3CC[C@@H]32)c(=O)c2nc(-c3cn[nH]c3)cnc2n1CC(=O)Nc1ccc(C(F)(F)F)cc1Cl` [I-268, N-[2-chloro-4-(trifluoromethyl)phenyl]-2-{6-ethyl-7-[(1S,6S)-5-(5-hydroxy-6-methylpyrimidine-4-carbonyl)-2,5-diazabicyclo[4.2.0]octan-2-yl]-8-oxo-2-(1H-pyrazol-4-yl)-5H,8H-pyrido[2,3-b]pyrazin-5-yl}acetamide], the EC50 in assay [1] is less than 500 nM. Moreover, in assay [2], the IC50 was not above 5 nM.

Take `CCc1c(N2CCN(C(=O)c3ncnc(C)c3O)[C@H]3CC[C@@H]32)c(=O)c2nc(N(C)C[C@H](C)OC)cnc2n1CC(=O)Nc1ccc(C(F)(F)F)cc1Cl` [I-269, N-[2-chloro-4-(trifluoromethyl)phenyl]-2-{6-ethyl-7-[(1S,6S)-5-(5-hydroxy-6-methylpyrimidine-4-carbonyl)-2,5-diazabicyclo[4.2.0]octan-2-yl]-2-{[(2S)-2-methoxypropyl](methyl)amino}-8-oxo-5H,8H-pyrido[2,3-b]pyrazin-5-yl}acetamide]: the EC50 in assay [1] is less than 500 nM. Also, the IC50 in assay [2] lay in the range of 5 to 50 nM.

For the compound `CCc1c(N2CCN(C(=O)c3ncnc(C)c3O)[C@H]3CC[C@@H]32)c(=O)c2nc(N3CC[C@@H](O)C3)cnc2n1CC(=O)Nc1ccc(C(F)(F)F)cc1Cl` [I-270, N-[2-chloro-4-(trifluoromethyl)phenyl]-2-{6-ethyl-7-[(1S,6S)-5-(5-hydroxy-6-methylpyrimidine-4-carbonyl)-2,5-diazabicyclo[4.2.0]octan-2-yl]-2-[(3R)-3-hydroxypyrrolidin-1-yl]-8-oxo-5H,8H-pyrido[2,3-b]pyrazin-5-yl}acetamide], in assay [1], the EC50 was in the range of 500 to 2000 nM. Also, in assay [2], the IC50 was in the range of 5 to 50 nM.

For the compound `CCc1c(N2CCN(C(=O)c3ncnc(C)c3O)[C@H]3CC[C@@H]32)c(=O)c2nc(N3CC[C@H](O)C3)cnc2n1CC(=O)Nc1ccc(C(F)(F)F)cc1Cl` [I-271, N-[2-chloro-4-(trifluoromethyl)phenyl]-2-{6-ethyl-7-[(1S,6S)-5-(5-hydroxy-6-methylpyrimidine-4-carbonyl)-2,5-diazabicyclo[4.2.0]octan-2-yl]-2-[(3S)-3-hydroxypyrrolidin-1-yl]-8-oxo-5H,8H-pyrido[2,3-b]pyrazin-5-yl}acetamide], in assay [1], the EC50 was in the range of 500 to 2000 nM. In assay [2], the IC50 was 5 to 50 nM.

For `CCc1c(N2CCN(C(=O)c3ncnc(C)c3O)[C@H]3CC[C@@H]32)c(=O)c2nc(-c3cncs3)cnc2n1CC(=O)Nc1ccc(C(F)(F)F)cc1Cl` [I-272, N-[2-chloro-4-(trifluoromethyl)phenyl]-2-{6-ethyl-7-[(1S,6S)-5-(5-hydroxy-6-methylpyrimidine-4-carbonyl)-2,5-diazabicyclo[4.2.0]octan-2-yl]-8-oxo-2-(1,3-thiazol-5-yl)-5H,8H-pyrido[2,3-b]pyrazin-5-yl}acetamide], in assay [1], the EC50 is less than 500 nM. The IC50 in assay [2] was in the range of 5 to 50 nM.
